Square brackets hold non-standard residues; d marks the D form. Peptide text beside a SMILES is read from it. Nle = CCCC[C@H](N)C(=O)O
How the values were obtained:
[1] = Selectivity index, ratio of EC50 for antiviral activity against SARS-CoV-2 to […]; format: toxicity
SARS-CoV-2 [2] = format: functional, organism-based; conditions: Severe acute respiratory syndrome coronavirus 2, Caco-2
[3] = target: T1, Replicase polyprotein 1ab (Severe acute respiratory syndrome coronavirus 2, UniProt P0DTD1); experiment: Inhibition of SARS-CoV-2 Main protease
SARS-CoV-2 [4] = experiment: Antiviral activity against SARS-CoV-2 USA-WA1/2020 infected in African green monkey Vero 76 cells assessed as reduction in virus induced cytopathic effect measured after 3 days by secondary viral yield reduction assay; format: functional, organism-based; conditions: Severe acute respiratory syndrome coronavirus 2, USA-WA1/2020, Vero 76, 72 h
SARS-CoV-2 [5] = format: functional, organism-based, Vero E6; conditions: Severe acute respiratory syndrome coronavirus 2, WK-521, Vero C1008, 72 h
SARS-CoV-2 [6] = format: functional, organism-based, Vero E6; conditions: Severe acute respiratory syndrome coronavirus 2, nCoV-2019BetaCoV/Wuhan/WIV04/2019, Vero C1008
[7] = target: T1, Replicase polyprotein 1ab; experiment: Inhibition of recombinant SARS-CoV-2 Main protease expressed in Escherichia coli BL21 (DE3) cells using Mca-AVLQSGFR-K(Dnp)K as substrate preincubated for 15 mins followed by substrate addition by FRET assay
SARS-CoV-2 [8] = experiment: microbe, parasite or virus in culture; conditions: Severe acute respiratory syndrome coronavirus 2
[9] = target: T1, Replicase polyprotein 1ab; experiment: Inhibition of SARS-CoV-2 Main protease using Dabcyl-KTSAVLQSGFRKME-Edans as substrate preincubated for 30 mins followed by substrate addition and measured after 4 hrs by fluorescence based assay
[10] = target: T1, Replicase polyprotein 1ab; experiment: Binding affinity to C-terminal His-tagged SARS-CoV-2 BetaCoV/Wuhan/WIV04/2019 Main protease expressed in Escherichia coli assessed as inhibition constant
SARS-CoV-2 [11] = format: functional, organism-based, Vero E6; conditions: Severe acute respiratory syndrome coronavirus 2, USA-WA1/2020, Vero C1008, 72 h
SARS-CoV-2 [12] = experiment: Antiviral activity against SARS-CoV-2 2019-nCoV/USA_WA1/2020 infected in human Huh-7 cells expressing ACE2 measured 24 hrs post infection; format: functional, organism-based; conditions: Severe acute respiratory syndrome coronavirus 2, 2019-nCoV/USA_WA1/2020, Huh-7, 24 h
[13] = target: T1, Replicase polyprotein 1ab; experiment: Binding affinity to SARS-CoV-2 Main protease assessed as inhibition constant
SARS-CoV-2 [14] = format: functional, organism-based; conditions: Severe acute respiratory syndrome coronavirus 2, A549, 96 h
SARS-CoV-2 [15] = format: functional, organism-based; conditions: Severe acute respiratory syndrome coronavirus 2, Caco-2, 72 h
Procathepsin L = Procathepsin L (Homo sapiens, UniProt P07711); experiment: Inhibition of human Cathepsin L using Z-Phe-Arg-AMC as fluorogenic substrate incubated for 30 mins followed by substrate addition by fluorescence based analysis
SARS-CoV-2 [16] = format: functional, organism-based, Vero E6; conditions: Severe acute respiratory syndrome coronavirus 2, 2019-nCoV/USA_WA1/2020, Vero C1008, 72 h
[17] = target: T1, Replicase polyprotein 1ab; experiment: Inhibition of SARS-CoV-2 Main protease by FRET assay
[18] = target: T1, Replicase polyprotein 1ab; experiment: Inhibition of C-terminal His-tagged SARS-CoV-2 BetaCoV/Wuhan/WIV04/2019 Main protease expressed in Escherichia coli using Dabcyl-KTSAVLQ/SGFRKME(Edans) as substrate by FRET assay

Sequence of Procathepsin L (P07711 whole entry): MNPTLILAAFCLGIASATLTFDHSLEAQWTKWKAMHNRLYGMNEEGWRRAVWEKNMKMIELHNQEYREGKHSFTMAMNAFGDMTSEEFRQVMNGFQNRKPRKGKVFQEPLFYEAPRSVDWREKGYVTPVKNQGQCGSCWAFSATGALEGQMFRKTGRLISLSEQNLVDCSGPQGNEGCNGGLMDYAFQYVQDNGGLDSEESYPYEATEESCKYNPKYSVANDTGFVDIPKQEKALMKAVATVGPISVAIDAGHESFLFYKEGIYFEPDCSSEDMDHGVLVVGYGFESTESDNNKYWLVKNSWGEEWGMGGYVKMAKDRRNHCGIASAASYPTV

C[C@H](NC[C@@H](c1cccnc1)N(C(=O)C(Cl)Cl)c1ccc(-c2ccccc2)cc1)c1ccccc1
Ratio [1]: 4.76
EC50 (SARS-CoV-2 [2]): 2050 nM
IC50 [3]: 430 nM

CSCC[C@@H](C=O)NC(=O)[C@H](CC(C)C)NC(=O)[C@H](CC(C)C)NC(C)=O (Ac-Leu-Leu-Met-aldehyde)
EC50 (SARS-CoV-2 [4]): 3700 nM

Cc1cccc(C(=O)Oc2c(C)cccc2C(=O)Oc2cncc(Cl)c2)c1O
EC50 (SARS-CoV-2 [5]): 24000 nM

O=c1c2ccccc2[se]n1Cc1ccc(Cl)cc1
EC50 (SARS-CoV-2 [6]): 1780 nM
IC50 [7]: 824 nM

O=C[C@H](C[C@@H]1CCNC1=O)NC(=O)[C@@H]1[C@H]2CCC[C@H]2CN1C(=O)OCc1ccccc1
Ratio [1]: 50.2

CC(C)(C)NC(=O)N[C@H](C(=O)N1C[C@H]2[C@@H]([C@H]1C(=O)NC(CC1CCC1)C(=O)C(N)=O)C2(C)C)C(C)(C)C (some centres undefined) [BOCEPREVIR]
EC50 (SARS-CoV-2 [8]): 1900 nM

COc1ccc(-c2sc3n(c(NC(C)(C)C)c4[n+]3[C@H]3CC(=O)C=C[C@H]3OC4)c2-c2ccc(OC)cc2)cc1
IC50 [9]: 20700 nM

CCC[C@H](NC(=O)[C@H](CC(C)C)NC(=O)OCc1ccccc1)C(=O)C(=O)NCc1ccccn1
EC50 (SARS-CoV-2 [4]): 780 nM

C[C@H](NC[C@@H](c1cccnc1)N(C(=O)C(Br)(Br)Br)c1ccc(-c2ccccc2)cc1)c1ccccc1
Ratio [1]: 26.87
EC50 (SARS-CoV-2 [2]): 2150 nM
IC50 [3]: 80 nM

COc1cccc(Cn2[se]c3ccccc3c2=O)c1
EC50 (SARS-CoV-2 [6]): 4500 nM
IC50 [7]: 363 nM

CC(C)C[C@H](NC(=O)OCc1ccccc1)C(=O)N[C@@H](CC(C)C)C(=O)N[C@@H](C[C@@H]1CCNC1=O)C(=O)C(=O)NC1CC1
Ki [10]: 13 nM
EC50 (SARS-CoV-2 [11]): 11100 nM

CC(C)C[C@H](NC(=O)OCc1cccc(C(F)(F)F)c1)C(=O)N[C@@H](C[C@@H]1CCNC1=O)C(O)S(=O)(=O)O (some centres undefined)
EC50 (SARS-CoV-2 [12]): 6 nM

C=CC(=O)N(c1ccc(C(C)(C)C)cc1)[C@H](C(=O)NCCc1cccc(F)c1)c1cccnc1
Ki [13]: 38400 nM

C=CCn1ccc2c(C(=O)Oc3cncc(Cl)c3)cccc21
Ratio [1]: 205.47

O=C1C=CC(=O)c2c(O)ccc(O)c21 [NAPHTHAZALIN]
IC50 [3]: 490 nM

O=C(CCl)N1N=C(c2cc(Cl)ccc2F)C(c2ccccc2)C1c1ccc2nccnc2c1 (centres undefined)
IC50 [3]: 14 nM

CC(C)C[C@H](NC(=O)OCc1ccccc1)C(=O)N[C@@H](C[C@@H]1CCNC1=O)C(=O)C(=O)NC1CC1
Ki [10]: 36 nM
EC50 (SARS-CoV-2 [11]): 4610 nM
Ratio [1]: 102.44

CC(C)C[C@H](NC(=O)[C@@H](NC(=O)OCc1ccccc1)[C@H](C)OC(C)(C)C)C(=O)N[C@H](C=O)C[C@@H]1CCNC1=O
EC50 (SARS-CoV-2 [14]): 310 nM
EC50 (SARS-CoV-2 [15]): 2500 nM
IC50 (Procathepsin L): 1.2 nM

O=C(c1cccc(Cn2[se]c3ccccc3c2=O)c1)N1CCOCC1
EC50 (SARS-CoV-2 [6]): 3740 nM
IC50 [7]: 345 nM

O=C(N[C@@H](Cc1ccccc1)C(=O)N[C@@H](C[C@@H]1CCNC1=O)C(O)S(=O)(=O)[O-])OCc1ccccc1.[Na+] (some centres undefined)
Ratio [1]: 45.78

COc1cncc(Cn2[se]c3ccccc3c2=O)c1
EC50 (SARS-CoV-2 [6]): 3170 nM
IC50 [7]: 467 nM

O=C(Oc1cncc(Cl)c1)c1cccc2c1CCN2
Ratio [1]: 46.87
Ki [13]: 2150 nM

CCOC(=O)/C=C/[C@H](C[C@@H]1CCNC1=O)NC(=O)[C@H](CC(C)C)NC(=O)[C@@H](NC(=O)OCc1ccccc1)[C@@H](C)OC(C)(C)C
EC50 (SARS-CoV-2 [16]): 2880 nM

CC(C)CCn1sc2ccc(Br)cc2c1=O
IC50 [17]: 320 nM

CCCC[C@@H](C=O)NC(=O)[C@H](CC(C)C)NC(=O)[C@H](CC(C)C)NC(C)=O (Ac-Leu-Leu-[Nle]-aldehyde)
IC50 [18]: 970 nM
